From US10280218B2, “Antibodies binding to BMP4, and uses thereof” (ACADEMISCH MEDISCH CENTRUM, priority 2014, dated 2019)

T1: BMP5 (Homo sapiens, UniProt P22003)
T1 sequence (P22003 317-454): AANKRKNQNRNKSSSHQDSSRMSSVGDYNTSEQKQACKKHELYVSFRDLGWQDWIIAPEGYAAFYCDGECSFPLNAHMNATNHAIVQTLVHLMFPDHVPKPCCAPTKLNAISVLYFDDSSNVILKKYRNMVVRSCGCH

T2: BMP2 (Homo sapiens, UniProt P12643)
T2 sequence (P12643 283-396): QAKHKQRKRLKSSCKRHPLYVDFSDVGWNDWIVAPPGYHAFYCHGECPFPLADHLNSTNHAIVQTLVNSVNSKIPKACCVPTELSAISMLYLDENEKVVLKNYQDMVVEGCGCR

B1: Gremlin: natural BMP antagonist (R&D Systems) (protein)
chain: KKKGSQGAIPPPDKAQHNDSEQTQSPPQPGSRTRGRGQGRGTAMPGEEVLESSQEALHVTERKYLKRDWCKTQPLKQTIHEEGCNSRTIINRFCYGQCNSFYIPRHIRKEEGSFQSCSFCKPKKFTTMMVTLNCPELQPPTKKKRVTRVKQCRCISIDLD

Experiments:
Test in all cases: BMP activity luciferase reporter assay (BRE-luciferase, ID1 promoter) in C2C12 cells
BMP10 = format: cell-based, human; settings: 25 ng/ml hBMP10, 16 h; LDN 0.5 μM; DMH1 0.2 μM
Description: (§1) C2C12 cells were plated in 96-well plates when they reached confluency, cells were treated in triplicate with 25 ng/ml of BMP9, 50 ng/ml of BMP10 or 50 ng/ml of BMP12 (all from R&D Systems), for 16 hours. VHHs or Noggin were added at a concentration of 5 ug/ml. C2C12 cells or HEK293 were plated on 12-well plates and starved for 5 hours, before stimulation with 2 ng/ml of TGF-β (R&D Systems) or 100 ng/ml Activin-A (R&D Systems), respectively. VHHs at the indicated concentrations were added at the same time. After 1 hour cells were lysed, and protein isolation and SDS-PAGE separation were performed as described previously. For protein detection the following antibodies were used: antiphospho-SMAD2 at 1:1000 (Cell Signaling).
C2C12 cells were cultured in 96-well plates at 5×10^3 cells/well. […]

human BMP4 = format: cell-based, mouse; settings: LDN 0.5 μM, DMH1 0.2 μM; for specificity / selectivity across BMP2, 4, 5, 6, 7, 9, 10, 12: VHH 500 ng/ml
Description: (§2) One of the most studied BMP target genes is the Inhibitor of Differentiation 1 (ID1). This is an immediate early gene that is activated by binding of the phosphorylated SMADs to its promoter region (López-Rovira et al., 2002). Thus, we employed the BMP-responsive C2C12 cells, which are stably transfected with the BRE-luciferase vector containing the BMP-Responsive-Element (the mouse ID1 promoter) cloned into the pGL3 luciferase vector (Zilberberg 2007). […] C2C12 cells were treated with the different BMPs with or without our VHHs or human Noggin at a concentration of 5 μg/ml. Luciferase activity was measured after 16 hours incubation. Most of the transcriptional data is in concordance with the results obtained with the phosphorylation of SMAD1/5/8.
(§3) C2C12 cells were plated in 96-well plates at 5×10^3 cells/well and cells were allowed to attach overnight. 100 μl of DMEM with 0.1% BSA were added in each well. VHH antibodies and human Fc-Noggin at the indicated concentrations were added at the same time. Wells with unstimulated cells were added as controls. Cells were treated in triplicate with the BMPs at the indicated concentrations for 16 hours. Luciferase activity was measured by adding 100 μl of luciferase substrate solution from the Bright-Glo™ Luciferase Assay System (Promega Benelux, Leiden, The Netherlands). After 3 minutes of incubation, luciferase activity was measured with Synergy HT Multi-Mode Microplate Reader (Biotek, Winooski, Vt., United States). Luciferase values were normalized to background activity (activity of wells with no cells) and represented as ratio to the activity of BMP-stimulated cells.
(§4) To evaluate the extent of this increase in potency, the IC50 of the different VHHs were determined in a dose-dependent inhibition assay in C2C12 cells (FIG. 25). C2C12 cells were plated in 96-well plates at 5×10^3 cells/well and cells were allowed to attach overnight 100 μl of DMEM with 0.1% BSA were added in each well. VHH antibodies were added at the indicated concentrations at the same time as 5 ng/ml BMP4 (FIG. 25A-B, D) or 50 ng/ml of BMP2 (FIG. 25C,D). Luciferase activity was measured after 16 hours. Values are represented as ratio to the activity of BMP-stimulated cells. […] However, its effects were more striking for BMP2 rather than BMP4 inhibition. […] The IC50 values for BMP4 inhibition observed in our VHHs are considerably lower than those observed for anti-BMP4 commercially available from R&D (Katagiri et al 1994) and those described in WO_2008/030611.
(§5) C2C12 cells were cultured in 96-well plates at 5×10^3 cells/well. After overnight attachment cells were stimulated with 10 ng/ml hBMP4 (Cat No. 314-BP-020; R&D Systems), 50 ng/ml hBMP2 (Cat No. 355-BM-010; R&D Systems), 200 ng/ml hBMP5 (Cat No. 615-BMC-020; R&D Systems), 50 ng/ml hBMP6 (Cat No. 506-BP-020; R&D Systems), 200 ng/ml hBMP7 (Cat No. 354-BP-010; R&D Systems), 25 ng/ml hBMP9 (Cat No. 3209-BP-010; R&D Systems), 25 ng/ml hBMP10 (Cat No. 2926-BP-025; R&D Systems), 50 ng/ml hBMP12 (Cat No. 779-G7-010; R&D Systems) and with or without VHH antibodies: C4C4 and C8C8 at 500 ng/ml; natural antagonist: mNoggin (Cat No. 1967-NG-025; R&D Systems), hNoggin (Cat No. 6057-NG; R&D Systems) and mGremlin (cat#956-GR-050; R&D Systems) at 500 ng/ml; chemical antagonist: 0.5 μM LDN-193189 (Cat No. 11802; Cayman Chemical) and 0.2 μM DMH1 (Cat No. 57146; Selleckchem).
(§6) VHH efficacy was evaluated by stimulating cells with 10 ng/ml of hBMP4 and 50 ng/ml of hBMP2, with and without increase concentrations (from 0.1-10 μg/ml) of VHH and anti-BMP4 antibodies: clone 66119, clone 3H2, clone M912262, clone PA354-16.1.1, Clone EPR6211, and anti-BMP4 (ab39973). […] Unstimulated cells were used as controls and wells with no cells used to normalize the background activity. […]

BMP9 = format: cell-based, mouse; settings: 25 ng/ml hBMP9, 16 h; LDN 0.5 μM; DMH1 0.2 μM
Description: as §1, §5

BMP5 = target: T1, BMP5; format: cell-based, mouse; design: purchased R&D Systems 615-BMC-020; settings: 200 ng/ml hBMP5, 16 h; VHH, Noggin, Gremlin 500 ng/ml; LDN 0.5 μM; DMH1 0.2 μM
Description: as §2
as §3, with “Cells were treated in triplicate with the BMPs at the indicated concentrations for 16 hours.” left out, “Luciferase values were normalized to background activity (activity of wells with no cells) and represented as ratio to the activity of BMP-stimulated cells.” left out

BMP2 = target: T2, BMP2; format: cell-based, mouse; settings: 50 ng/ml hBMP2, 16 h; VHH, Noggin, Gremlin 500 ng/ml; LDN 0.5 μM; DMH1 0.2 μM
Description: as §2, §3, §4, §5, §6

Molecule | inhibition of BMP-10-derived signals, comparison of inhibitors (BMP10) | specificity / selectivity across BMP2, 4, 5, 6, 7, 9, 10, 12 (human BMP4) | inhibition of BMP-9-derived signals, comparison of inhibitors (BMP9) | inhibition of BMP5 signals, comparison of inhibitors (BMP5) | inhibition of BMP4-derived signals, comparison of inhibitors (human BMP4; 10 ng/ml hBMP4, 16 h, VHH, Noggin, Gremlin 500 ng/ml) | inhibition of BMP-2 signals, comparison of inhibitors (BMP2)
CC(C)Oc1ccc(-c2cnc3c(-c4ccnc5ccccc45)cnn3c2)cc1 [DMH1] | shown to inhibit | even less selective than Noggin | shown to inhibit |  |  | 
c1ccc2c(-c3cnn4cc(-c5ccc(N6CCNCC6)cc5)cnc34)ccnc2c1 [LDN, LDN-193189] | shown to inhibit | even less selective than Noggin | shown to inhibit |  |  | 
B1 |  |  |  | greatly inhibit | greatly inhibit | greatly inhibit
